For 17 molecules, EC50 results are on record in patent US20230295096A1, “PYRAZOLE CARBOXAMIDE COMPOUNDS FOR TREATMENT OF HBV” (ASSEMBLY BIOSCIENCES, INC., priority 2020, published 2023).

For one assay, the system named is HBV. Description: Viral load production from HepAD38 cells, qPCR of the HBV core sequence in supernatant. Particulars: HepAD38 cells, 5 days, HBV DNA in supernatant by qPCR; Table 1 ranges; read-out: Activity (viral load lowering EC50). The format is cell-based. The method, then: HepAD38 cells grown in a T-150 flask (Corning, cat#: 430825) with Growth Medium (DMEM/F12 (1:1) (Hyclone, cat#: SH30023.02), 1X Pen/Strep (Invitrogen, cat#: 15140-122), 10% FBS (Tissue Culture Biologics, cat#: 101), 250 µg/mL G418 (Alfa Aesar, cat#: J62671), 1 µg/mL Tetracycline (Teknova, cat#: T3320)) were detached with 0.25% trypsin-EDTA (Invitrogen, cat#: 25200-056). Tetracycline-free treatment medium (15 mL DMEM/F12 (1:1) 1× Pen/step, with 2% FBS, Tet-system approved (Clontech, cat#: 631106) were then added to mix, transferred into a 50 ml conical tube (Falcon, cat#: 21008-918,) and spun at 1300 rpm for 5 min. Pelleted cells were then re-suspended/washed with 50 mL of 1X DPBS (Invitrogen, cat#: 14190-136) 2 times and 50 mL treatment medium twice. HepAD38 cells were then re-suspended with 10 mL of treatment medium, syringed and counted. Wells of 96-well clear bottom TC plate (Corning, cat#: 3904,) were seeded at 50.000 cells/well in 180 µL of treatment medium, and 20 µL of either 10% DMSO (Sigma, cat#: D4540) as controls or a 10X solution of test compounds in 10% DMSO in treatment media was added for a final compound concentration starting at 10 µM, and plates were incubated in 5% CO2 incubator at 37° C. for 5 days.
Subsequently viral load production was assayed by quantitative PCR (qPCR) of the HBV core sequence. PCR reaction mixture containing forward primers HBV-f 5′-CTGTGCCTTGGGTGGCTTT-3′ (IDT DNA), Reverse primers HBV-r 5′-[…]-3′ (IDT DNA), Fluorescent TaqMan^tm Probes HBV-probe 5′-FAM/AGCTCCAAA/ZEN/[…]/3IABkFQ-3′ (IDT DNA), 10 µL/well of PerfeCTa® qPCR ToughMix® (Quanta Biosciences, Cat#: 95114-05 K), and 6 µL/well of DEPC water (Alfa Aesar, cat#: J62087) was prepared. Four µL of supernatant was added to 16 µL of the reaction mixture in a qPCR plate (Applied Biosytems, Cat#: 4309849), sealed with a film (Applied Biosystems, Cat#: 4311971), centrifuged for a few seconds, and subsequently run on an Applied Biosystems VIIA7. The PCR mixture was incubated at 45° C. for 5 min, then 95° C. for 10 min, followed by 40 cycles of 10 seconds at 95° C. and 20 seconds at 60° C. Viral load was quantified against known HBV DNA standards by using ViiA™ 7 Software. Viral load in the supernatant from wells with treated cells were compared against viral load in supernatant from DMSO control wells (≥ 3 per plate). Cell viability assay was performed with CellTiter-Glo Luminescent Cell Viability Assay (Promega, cat#: G7573) with modification. Mixed appropriate amount of CellTiter-Glo (CTG) 1X DPBS in a 1:1 ratio, added 100 uL of the mixture to each well followed completely removal of all supernatant in each well without touching cell surface. Incubated the plate at room temperature for 10 min on an orbital shaker, and then read the plate with a plate reader (TECAN M1000 or Envision). EC50 or CC50 values were calculated through curve-fitting of the four-parameter nonlinear-logistic-regression model (GraphPad Prism or Dotmatics). CC50 values were all >10 µM.
On to `C[C@@H](NC(=O)C1CC2CC(c3nn(C)c(N)c3C(=O)Nc3ccc(F)c(Cl)c3)CC2C1)C(F)(F)F` (single isomer, unassigned) [Example 102], for which the EC50 lay in the range of 10 to 50 nM.

The assay is the same for the next values; noted with them: Hepatitis B virus, HePAD38, 120 h, HepAD38 cells, 5 days, HBV DNA in supernatant by qPCR; Table 1 ranges; read-out: Activity (viral load lowering EC50).
As to `Cn1nc(C2CC3CC(O)(c4ncc(C(F)(F)F)s4)CC3C2)c(C(=O)Nc2ccc(F)c(Cl)c2)c1N` (centres unmarked) [Example 148], the EC50 fell in the range of 10 to 50 nM.
Still for that read-out and setting: the value for `Cn1nc(C2CC3CC(CNC(=O)C45CCN(CC4)CC5)CC3C2)c(C(=O)Nc2ccc(F)c(Cl)c2)c1N` (centres unmarked) [Example 78, N-((5-(5-Amino-4-((3-chloro-4-fluorophenyl)carbamoyl)-1-methyl-1H-pyrazol-3-yl)octahydropentalen-2-yl)methyl)quinuclidine-4-carboxamide] was 50 to 500 nM.
Regarding `Cn1nc(C2CC3CC(O)(c4n[nH]cc4C(F)(F)F)CC3C2)c(C(=O)Nc2ccc(F)c(Cl)c2)c1N` (centres unmarked) [Example 212], the EC50 was below 10 nM.
On the same count and under the same terms, the result for `Cn1nc(C2CC3CC(CNC(=O)c4cnc(C(F)(F)F)s4)CC3C2)c(C(=O)Nc2ccc(F)c(Cl)c2)c1N` (centres unmarked) [Example 58, N-((5-(5-Amino-4-((3-chloro-4-fluorophenyl)carbamoyl)-1-methyl-1H-pyrazol-3-yl)octahydropentalen-2-yl)methyl)-2-(trifluoromethyl)thiazole-5-carboxamide] reads 10 to 50 nM; that for `Cc1cc(C2(O)CC3CC(c4nn(C)c(N)c4C(=O)Nc4ccc(F)c(Cl)c4)CC3C2)ccc1F` (centres unmarked) [Example 13, 5-Amino-N-(3-chloro-4-fluorophenyl)-3-(5-(4-fluoro-3-methylphenyl)-5-hydroxyoctahydropentalen-2-yl)-1-methyl-1H-pyrazole-4-carboxamide], 10 to 50 nM; that for `Cn1nc(C2CC3CC(O)(c4c[nH]nn4)CC3C2)c(C(=O)Nc2ccc(F)c(Cl)c2)c1N` (centres unmarked) [Example 170], below 10 nM.
With `Cn1nc(C2CC3CC(O)(c4cc(C(F)(F)F)n[nH]4)CC3C2)c(C(=O)Nc2ccc(F)c(Cl)c2)c1N` (centres unmarked) [Example 223], the EC50 was below 10 nM.
As for `Cn1nccc1C1(O)CC2CC(c3nn(C)c(N)c3C(=O)Nc3ccc(F)c(Cl)c3)CC2C1` (centres unmarked) [Example 26, 5-Amino-N-(3-chloro-4-fluorophenyl)-3-(5-hydroxy-5-(1-methyl-1H-pyrazol-5-yl)octahydropentalen-2-yl)-1-methyl-1H-pyrazole-4-carboxamide], the EC50 is below 10 nM.
`Cn1nc(C2CC3CC(O)(c4c(F)cnn4C)CC3C2)c(C(=O)Nc2ccc(F)c(Cl)c2)c1N` (centres unmarked) [Example 209]: the EC50 was below 10 nM.
Still for that read-out and setting: the result for `Cn1nc(C2CC3CC(O)(c4ncccn4)CC3C2)c(C(=O)Nc2ccc(F)c(Cl)c2)c1N` (centres unmarked) [Example 175] reads below 10 nM; that for `Cn1nc(C2CC3CC(O)(c4ccc(Cl)cc4)CC3C2)c(C(=O)Nc2ccc(F)c(Cl)c2)c1N` (centres unmarked) [Example 3, 5-Amino-N-(3-chloro-4-fluorophenyl)-3-(5-(4-chlorophenyl)-5-hydroxyoctahydropentalen-2-yl)-1-methyl-1H-pyrazole-4-carboxamide], 10 to 50 nM.
The same measure, in the same setting: the value for `CC(C)n1nc([N+](=O)[O-])cc1C1(O)CC2CC(c3nn(C)c(N)c3C(=O)Nc3ccc(F)c(Cl)c3)CC2C1` (centres unmarked) [Example 206] was below 10 nM.
On the same count and under the same terms, the result for `Cc1ccc(S(=O)(=O)CC2(O)CC3CC(c4nn(C)c(N)c4C(=O)Nc4ccc(F)c(Cl)c4)CC3C2)cn1` (centres unmarked) [Example 162] reads below 10 nM; that for `C[C@@H](NC(=O)C1CC2CC(c3nn(C)c(N)c3C(=O)Nc3ccc(F)c(Cl)c3)CC2C1)C(F)(F)F` (single isomer, unassigned) [Example 101], 10 to 50 nM; that for `Cn1nc(C2CC3CC(O)(c4ncc[nH]4)CC3C2)c(C(=O)Nc2ccc(F)c(Cl)c2)c1N` (centres unmarked) [Example 147], 10 to 50 nM.
For the molecule `Cn1nc(C2CC3CC(CNC(=O)COCCOCCN)CC3C2)c(C(=O)Nc2ccc(F)c(Cl)c2)c1N` (centres unmarked) [Example 82, 5-Amino-3-(5-((2-(2-(2-aminoethoxy)ethoxy)acetamido)methyl)octahydropentalen-2-yl)-N-(3-chloro-4-fluorophenyl)-1-methyl-1H-pyrazole-4-carboxamide], the EC50 lay within 50 to 500 nM.
